Measured values from ChEMBL document CHEMBL3045251, “Ethephon elicits protection against Erysiphe necator in grapevine” (2008).
Active and inactive are the calls of the source. The calls are words filed in the database; no cut-off is given here.

How the values were obtained:
Erysiphe necator [1] = assay: Fungicidal activity against Erysiphe necator infected 72 hr compound pre-treated grapevine foliar cuttings assessed as reduction in powdery mildew infection measured 14 days post fungal inoculation; format: functional; set-up: scale not given: the % may be the effect or the level left
Vitis vinifera [2] = assay: Increase in […] protease inhibitor gene expression in Vitis vinifera cv. Cabernet Sauvignon foliar cuttings at 0.5 g/L measured after 12 to 72 hr post dose by RTq-PCR method relative to untreated control; format: functional
Vitis vinifera [3] = assay: Induction of delta-viniferin accumulation in Vitis vinifera cv. Cabernet Sauvignon foliar cuttings assessed per dry weight of plant at 0.5 g/L measured after 72 hr post dose by fluorimetry; format: functional
Vitis vinifera [4] = assay: Increase in beta-1,3- glucanase gene expression in Vitis vinifera cv. Cabernet Sauvignon foliar cuttings at 0.5 g/L measured after 12 to 24 hr post dose by RTq-PCR method relative to untreated control; format: functional
Erysiphe necator [5] = assay: Fungicidal activity against Erysiphe necator infected 72 hr compound pre-treated grapevine leaf disks assessed as reduction in fungal colonization measured 14 days post fungal inoculation; format: functional; set-up: scale not given: the % may be the effect or the level left
Vitis vinifera [6] = assay: Increase in […] class IV chitinase gene expression in Vitis vinifera cv. Cabernet Sauvignon foliar cuttings at 0.5 g/L measured after 6 hr post dose by RTq-PCR method relative to untreated control; format: functional
Vitis vinifera [7] = assay: Induction of trans-resveratrol accumulation in Vitis vinifera cv. Cabernet Sauvignon foliar cuttings assessed per dry weight of plant at 0.5 g/L measured after 24 to 72 hr post dose by fluorimetry; format: functional
Vitis vinifera [8] = assay: Induction of trans-stilbenes in Vitis vinifera cv. Cabernet Sauvignon foliar cuttings at 0.5 g/L measured after 20 to 80 hr post dose by fluorimetry; format: functional, organism-based
Vitis vinifera [9] = assay: Induction of pterostilbene accumulation in Vitis vinifera cv. Cabernet Sauvignon foliar cuttings assessed per dry weight of plant at 0.5 g/L measured after 24 to 72 hr post dose by fluorimetry; format: functional
Vitis vinifera [10] = assay: Increase in polygalacturonase-inhibiting protein gene expression in Vitis vinifera cv. Cabernet Sauvignon foliar cuttings at 0.5 g/L measured after 12 to 24 hr post dose by RTq-PCR method relative to untreated control; format: functional
Vitis vinifera [11] = assay: Increase in phenylalanine stilbene synthase gene expression in Vitis vinifera cv. Cabernet Sauvignon foliar cuttings at 0.5 g/L measured after 6 hr post dose by RTq-PCR method relative to untreated control; format: functional
Vitis vinifera [12] = assay: Induction of delta-viniferin accumulation in Vitis vinifera cv. Cabernet Sauvignon foliar cuttings assessed per dry weight of plant at 0.5 g/L measured after 24 hr post dose by fluorimetry; format: functional
Vitis vinifera [13] = assay: Increase in phenylalanine ammonia lyase gene expression in Vitis vinifera cv. Cabernet Sauvignon foliar cuttings at 0.5 g/L measured after 6 hr post dose by RTq-PCR method relative to untreated control; format: functional
Vitis vinifera [14] = assay: Induction of epsilon-viniferin accumulation in Vitis vinifera cv. Cabernet Sauvignon foliar cuttings assessed per dry weight of plant at 0.5 g/L measured after 24 hr post dose by fluorimetry; format: functional
Vitis vinifera [15] = assay: Induction of trans-piceid accumulation in Vitis vinifera cv. Cabernet Sauvignon foliar cuttings assessed per dry weight of plant at 0.5 g/L measured after 72 hr post dose by fluorimetry; format: functional

## O=P(O)(O)CCCl [ETHEPHON]
Erysiphe necator [1]
  Activity: 70%
Vitis vinifera [2]
  fold change (FC): 9
Vitis vinifera [3]
  Activity: 6 nmol/g
Vitis vinifera [4]
  fold change (FC): 33
Erysiphe necator [5]
  Activity: 64%
Vitis vinifera [6]
  fold change (FC): 11
Vitis vinifera [7]
  Activity: 133 nmol/g
Vitis vinifera [8]
  Activity: Active
Vitis vinifera [9]
  Activity: 10 nmol/g
Vitis vinifera [10]
  fold change (FC): 22
Vitis vinifera [11]
  fold change (FC): 67
Vitis vinifera [12]
  Activity: 12 nmol/g
Vitis vinifera [13]
  fold change (FC): 10
Vitis vinifera [14]
  Activity: 58 nmol/g
Vitis vinifera [15]
  Activity: 312 nmol/g
